Tests used:
[1] = test system: lung epithelial cells (LECs); settings: in vitro and in vivo; cited from earlier work
FL(IPF)-fibroblasts = experiment: miR-34a (real-time PCR) and p53 (immunoblot) in FL-fibroblasts treated with CSP; type: cell-based, human; settings: controls PBS, CP
Protocol: (§1) FIGS. 6A-6D. CSP (CSP4) augments p53 expression via induction of miR-34a in FL(IPF)-fibroblasts. (FIG. 6A) NL- and FL-fibroblasts (n=3) were treated with PBS, CSP-4 (CSP) or control peptide (CP). RNA was analyzed for miR-34a by real-time PCR. (FIG. 6B) FL-fibroblasts were treated with PBS or CSP or CP with or without miR-34a antisense (miR-34a-AS) or pre-miR-34a or control miRNA (Ctr-miR). Conditioned media (CM) were immunoblotted for PAI-1 and lysates (CL) for p53 and β-actin. (FIG. 6C) FL-fibroblasts were treated with PBS or CSP or CP in the presence or absence of miR-34a-AS, pre-miR-34a or Ctr-miR. RNA was analyzed for changes in miR-34a by real-time PCR. […] Changes in p53, uPA, PAI-1 and col-I were later assessed to identify the minimum amino acids required for the CSP effects.
(§2) NL- and FL-fibroblasts were treated with PBS, CSP or CP and RNA analyzed for miR-34a by real-time PCR. Also, FL-fibroblasts were cultured in the presence of PBS or CSP or CP with or without miR-34a antisense (miR-34a-AS) or pre-miR-34a (o control miRNA. Conditioned medium (CM) from these cultures was immunoblotted for PAI-1 and cell lysates (CL) were immunoblotted for p53. In one experiment, FL-fibroblasts were treated with PBS or CSP or CP in the presence or absence of miR-34a-AS, pre-miR-34a or control miR. RNA was analyzed for changes in miR-34a by real-time PCR. Results appear in FIGS. 6A-6C.

[2] = after BLM; cited from earlier work
ATII cell = settings: BLM- or cigarette smoke-induced; cited from earlier work
NL-fibroblasts = experiment: miR-34a and p53 in NL-fibroblasts treated with CSP; type: cell-based, human
Protocol: as §1, §2

BLM-treated mice = experiment: Established lung fibrosis in BLM-treated mice (CT scanning, lung function, trichrome staining, hydroxyproline, desmosine); type: in vivo; settings: IP or IV administration beginning 14 d after BLM, WT mice; results reported herein and elsewhere
Protocol: FIGS. 10A-10D. Nutlin-3a (NTL) inhibits lung fibrosis in BLM-treated mice. Mice were exposed to BLM for 14 d to induce lung fibrosis. Saline treated mice were used as fibrosis controls. After 14 d, mice exposed to BLM were injected IV with either vehicle or nutlin-3 a (10 mg/kg body weight) (Zhang F et al. Drug Metab Dispos 39: 15-21, 2011) to determine whether nutlin-3 a inhibited established lung fibrosis. On day 21 after BLM injury, mice underwent CT scanning to assess the extent of fibrosis (FIG. 10A). One representative example is shown (n=9). (FIG. 10B) Lung compliance and resistance were measured in the same mice using the Flexivent system to assess improvement in lung function after nutlin-3 a treatment (n=9). (FIG. 10C) Lung sections were subjected to trichrome staining to assess lung architecture and collagen deposition as an indication of lung fibrosis. (FIG. 10D) Whole lung homogenates were analyzed for total collagen (hydroxyproline) and desmosine content as an independent assessment of changes in ECM.
FIGS. 11A-11D. CSP-4 inhibits established lung fibrosis and improves lung function. Mice were exposed to BLM to induce pulmonary fibrosis. After 14 d, the mice were injected IV with either vehicle or 1.5 mg/kg body weight of CSP-4 or control peptide (“CP”) of scrambled sequence. On d 21 after BLM injury, mice underwent CT scanning examine CSP-4 inhibition of established lung fibrosis (FIG. 11A). One representative example is shown (n=9). (FIG. 11B): Lung volumes were measured in the same mice (n=9) using quantitative CT renditions. (FIG. 11C): Lung sections were subjected to trichrome and H&E staining (not shown) to assess collagen deposition as an indicator of lung fibrosis. (FIG. 11D) Analysis of whole lung homogenates for total hydroxyproline content.
Mice exposed to BLM (or saline in controls) for 14 d to induce lung fibrosis were injected IV with nutlin-3a (10 mg/kg body weight) (Zhang et al, supra) or a vehicle control to determine and the effect on established lung fibrosis was examined. Fibrosis was evaluated by CT scanning and lung function (compliance and resistance) were measured using the Flexivent system. Lung sections were subjected to trichrome staining and H & E staining (the latter not shown) to assess lung architecture and collagen deposition as an indication of fibrosis. Finally, whole lung homogenates were analyzed for total collagen (hydroxyproline) and desmosine content (Bhandary Y P et al, Am J Physiol: Lung Cell Mol Physiol 302:L463-73, 2012; Bhandary Y P et al, Am J Pathol, 183: 131-43 2013) as an independent assessment of the ECM. […] Oral administration of Nutlin-3a 14 days after BLM injury likewise inhibited pulmonary fibrosis in mice.
Mice were exposed to BLM to induce pulmonary fibrosis. After 14 d, the mice were injected IV with either vehicle or 1.5 mg/kg body weight of CSP-4 (SEQ ID NO: 1) or control peptide (scrambled sequence of same amino acids; CP, SEQ ID NO:5) at 1.5 mg/kg body weight or vehicle was injected IV into mice exposed to BLM 14 days earlier. One week later, mice were tested by CT scanning to evaluate lung fibrosis. Lung volume was measured in the same mice using quantitative CT renditions.

## DGIWKASFTTFTVTKYWFYR (Synthetic peptide - Scaffolding domain of human caveolin-1) [CSP, 20 residue peptide which is the scaffolding domain of caveolin-1]
[1]
  BLM-induced apoptosis of LECs: protected
FL(IPF)-fibroblasts
  miR-34a expression: significantly increased
  p53 expression: significantly increased
[2]
  subsequent pulmonary fibrosis: prevented
ATII cell
  ATII cell apoptosis: inhibited
  ATII cell p53 expression: inhibited
NL-fibroblasts
  p53 expression: not in NL-fibroblasts
BLM-treated mice
  established lung fibrosis: mitigates

## NYHYLESSMTALYTLGH [PP 2, 17 residue peptide of the inventors' earlier application]
[1]
  BLM-induced apoptosis of LECs: protected
[2]
  subsequent pulmonary fibrosis: prevented
